Read-outs that look alike come from different tables or passages of the source.
Target: T1, P-glycoprotein (P-gp) (Homo sapiens, UniProt P08183)
T1 construct: The resistant CEM/vcr1000 line was obtained by stepwise selection in vincristine containing medium; endogenous in cells; host or cells: CCRF-CEM vcr1000 (CEM/vcr1000), a human T-lymphoblast line made multidrug resistant by vincristine selection
Experiment: Daunorubicin efflux inhibition in multidrug resistant CCRF-CEM vcr1000 cells
Format: cell-based
Conditions: for factor more active than corresponding unsubstituted analogs 6a and 6b: N-methylated L-valine analogues versus secondary amines
Experimental: Biological activity of target compounds 5a–22b was assessed using the daunorubicin efflux protocol as described previously. Briefly, multidrug resistant CCRF-CEM vcr 1,000 cells were incubated with daunorubicin and the decrease in mean cellular fluorescence in dependence of time was measured in presence of various concentrations of the modulator. IC50 values were calculated from the concentration–response curve of efflux V max /K m versus concentration of the modulator. Thus, the effect of different modulators on the transport rate is measured in a direct functional assay. Values are given in Table 1 and are the mean of at least three independently performed experiments. Generally, inter experimental variation was below 20 %.
The human T-lymphoblast cell line CCRF-CEM and the multidrug resistant CEM/vcr1000 cell line were provided by V. Gekeler (Byk Gulden, Konstanz, Germany). The resistant CEM/vcr1000 line was obtained by stepwise selection in vincristine containing medium. Cells were kept under standard culture conditions (RPMI1640 medium supplemented with 10% fetal calf serum). P-gp-expressing resistant cell line was cultured in presence of 1000 ng/mL vincristine. One week prior to the experiments cells were transferred into medium without selective agents or antibiotics. Briefly, cells were pelleted, the supernatant was removed by aspiration and cells were resuspended at a density of 1 x 10^6/ mL in PRMI1640 medium containing 3µmol/l daunomycin. Cell suspensions were incubated at 37°C for 30 min. After this time a steady state of daunorubicin accumulation was reached. Tubes were chilled on ice and cells were pelleted at 500 x g. Cells were washed once in RPMI1640 medium to remove extracellular daunorubicin. […] Generally, 8 serial dilutions were tested for each modulator. After 1, 2, 3 and 4 min aliquots of the incubation mixture were drawn and pipetted into 4 volumes of ice cold stop solution (RPMI1640 medium containing verapamil at a final concentration of 100 µM). Parental CCRF-CEM cells were used to correct for simple membrane diffusion, which was less than 3% of the efflux rates observed in resistant cells. Samples drawn at the respective time points were kept in an ice water bath and measured within one hour on a Becton Dickinson FACS Calibur (Becton Dickinson, Heidelberg, Germany) flow cytometer as described. Dose response curves were fitted to the data points using non-linear least squares and IC50 values were calculated as described by Chiba et al. […] A CV of below 20% was obtained in all determinations.

[1] = SM Table 2, logarithm of the measured IC50 (μM) of Table 1
[2] = inhibition of P-gp mediated daunorubicin efflux, CCRF-CEM vcr1000 cells, mean of at least three experiments, read-out: IC50 μM ± SD
[3] = SM Table 2, logarithm of the measured IC50 (μM) of Table 1, read-out: Exp. LogIC50 (converted)

T1 sequence (P08183 whole entry): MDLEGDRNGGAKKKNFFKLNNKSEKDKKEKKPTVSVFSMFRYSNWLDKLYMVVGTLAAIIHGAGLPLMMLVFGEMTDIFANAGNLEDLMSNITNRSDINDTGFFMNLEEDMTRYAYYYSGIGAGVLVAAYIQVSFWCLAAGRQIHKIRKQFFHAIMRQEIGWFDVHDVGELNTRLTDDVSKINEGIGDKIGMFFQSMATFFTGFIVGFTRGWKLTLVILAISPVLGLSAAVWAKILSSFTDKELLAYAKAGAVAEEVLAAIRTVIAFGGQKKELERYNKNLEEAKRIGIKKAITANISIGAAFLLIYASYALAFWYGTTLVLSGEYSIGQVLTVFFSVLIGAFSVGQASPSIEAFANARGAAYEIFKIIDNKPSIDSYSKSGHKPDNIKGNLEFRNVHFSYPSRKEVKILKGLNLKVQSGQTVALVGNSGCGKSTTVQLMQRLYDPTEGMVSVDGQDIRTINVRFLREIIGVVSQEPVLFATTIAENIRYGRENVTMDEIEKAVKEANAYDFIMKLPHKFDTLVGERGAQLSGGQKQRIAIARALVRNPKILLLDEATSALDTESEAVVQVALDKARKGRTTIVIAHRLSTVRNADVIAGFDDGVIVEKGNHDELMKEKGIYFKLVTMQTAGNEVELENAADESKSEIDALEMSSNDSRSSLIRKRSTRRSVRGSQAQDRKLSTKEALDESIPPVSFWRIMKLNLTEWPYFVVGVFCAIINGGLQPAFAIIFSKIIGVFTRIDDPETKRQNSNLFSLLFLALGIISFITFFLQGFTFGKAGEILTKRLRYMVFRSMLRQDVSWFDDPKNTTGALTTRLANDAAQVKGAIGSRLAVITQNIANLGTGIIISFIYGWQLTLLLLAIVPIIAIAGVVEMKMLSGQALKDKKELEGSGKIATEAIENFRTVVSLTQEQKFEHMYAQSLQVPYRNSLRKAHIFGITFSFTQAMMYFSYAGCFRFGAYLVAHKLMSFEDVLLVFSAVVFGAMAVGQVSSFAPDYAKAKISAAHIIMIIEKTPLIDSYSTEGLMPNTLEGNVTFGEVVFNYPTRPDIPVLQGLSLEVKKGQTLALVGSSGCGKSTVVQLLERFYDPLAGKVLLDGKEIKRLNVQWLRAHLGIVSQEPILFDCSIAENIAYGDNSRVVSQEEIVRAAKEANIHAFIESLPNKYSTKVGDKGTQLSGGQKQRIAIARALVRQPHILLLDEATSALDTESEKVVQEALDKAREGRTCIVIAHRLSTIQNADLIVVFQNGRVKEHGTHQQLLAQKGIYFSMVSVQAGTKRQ

| SMILES | Exp. LogIC50 [1] | IC50 [2] [µM] | factor more active than corresponding unsubstituted analogs 6a and 6b | factor less active than diastereomeric 4aR,10bS analogue 12b (ratio of P-gp inhibitory potency (IC50), 12a versus 12b) | more active than diastereomer 14b (ratio of P-gp inhibitory potency (IC50), 14a versus 14b) | IC50 [3] [µM] |
| --- | --- | --- | --- | --- | --- | --- |
| C[C@H](N[C@@H]1c2cc(C#N)ccc2OC(C)(C)[C@H]1O)C(=O)OC(C)(C)C [5a] | -1.47 | 29.85 ± 0.01 | – | – | – | – |
| C[C@@H]1N[C@@H]2c3cc(C#N)ccc3OC(C)(C)[C@H]2OC1=O [12a] | -3.09 | 1241.6 ± 0.04 | – | 15 | – | – |
| C[C@@H]1N[C@H]2c3cc(C#N)ccc3OC(C)(C)[C@@H]2OC1=O [12b] | -1.88 | 76.89 ± 0.06 | – | – | – | – |
| CC(C)[C@@H]1N[C@@H]2c3cc(C#N)ccc3OC(C)(C)[C@H]2OC1=O [13a] | -1.18 | 15.3 ± 0.32 | – | – | – | – |
| CC(C)[C@@H]1N[C@H]2c3cc(C#N)ccc3OC(C)(C)[C@@H]2OC1=O [13b] | -1.77 | 59.3 ± 0.6 | – | – | – | – |
| CC1(C)Oc2ccc(C#N)cc2[C@@H]2N[C@@H](Cc3ccccc3)C(=O)O[C@H]21 [14b] | -2.41 | 259.78 ± 0.06 | – | – | – | – |
| C[C@H]1C(=O)O[C@H]2[C@@H](c3cc(C#N)ccc3OC2(C)C)N1C [15a] | -1.68 | 47.8 ± 0.91 | – | – | – | – |
| C[C@H]1C(=O)O[C@@H]2[C@H](c3cc(C#N)ccc3OC2(C)C)N1C [15b] | -1.46 | 28.93 ± 0.15 | – | – | – | – |
| CC(C)[C@H]1C(=O)O[C@H]2[C@@H](c3cc(C#N)ccc3OC2(C)C)N1C [16a] | – | 47.51 ± 0.4 | – | – | – | 47.9 |
| CC(C)[C@H]1C(=O)O[C@@H]2[C@H](c3cc(C#N)ccc3OC2(C)C)N1C [16b] | – | 16.7 ± 0.2 | – | – | – | 16.6 |
| CC(C)[C@@H]1C(=O)O[C@H]2[C@@H](c3cc(C#N)ccc3OC2(C)C)N1C [18a] | – | 79.27 ± 0.05 | – | – | – | 77.6 |
| CC(C)[C@@H]1C(=O)O[C@@H]2[C@H](c3cc(C#N)ccc3OC2(C)C)N1C [18b] | – | 27.84 ± 0.02 | – | – | – | 27.5 |
| CC(C)[C@@H](CO)N[C@@H]1c2cc(C#N)ccc2OC(C)(C)[C@H]1O [19a] | -1.73 | 54.05 ± 0.31 | – | – | – | – |
| CC(C)[C@@H](CO)N[C@H]1c2cc(C#N)ccc2OC(C)(C)[C@@H]1O [19b] | -2.01 | 102.6 ± 0.15 | – | – | – | – |
| CC(C)[C@@H](CO)N(C)[C@@H]1c2cc(C#N)ccc2OC(C)(C)[C@H]1O [20a] | -0.74 | 5.46 ± 0.24 | – | – | – | – |
| CC(C)[C@@H](CO)N(C)[C@H]1c2cc(C#N)ccc2OC(C)(C)[C@@H]1O [20b] | -0.83 | 6.84 ± 0.15 | – | – | – | – |
| CC(C)[C@H]1CO[C@H]2[C@H](N1)c1cc(C#N)ccc1OC2(C)C [21a, (2S,4aS,10bR)-2-isopropyl-5,5-dimethyl-1,4a,5,10b-tetrahydro-3H [1]benzopyrano[3,4-b][1,4]oxazine-9-carbonitril] | – | 48.8 ± 0.09 | – | – | – | 49 |
| CC(C)[C@H]1CO[C@@H]2[C@@H](N1)c1cc(C#N)ccc1OC2(C)C [21b] | – | 44 ± 0.03 | – | – | – | 43.7 |
| CC(C)[C@@H](CCl)N(C)[C@@H]1c2cc(C#N)ccc2OC(C)(C)[C@H]1O [22a] | -1.55 | 35.22 ± 0.02 | – | – | – | – |
| CC(C)[C@@H](CCl)N(C)[C@H]1c2cc(C#N)ccc2OC(C)(C)[C@@H]1O [22b] | -1.65 | 45.17 ± 0.05 | – | – | – | – |

Other lines, results leading:

| Exp. LogIC50 [1] | IC50 [2] [µM] | factor more active than corresponding unsubstituted analogs 6a and 6b | factor less active than diastereomeric 4aR,10bS analogue 12b (ratio of P-gp inhibitory potency (IC50), 12a versus 12b) | more active than diastereomer 14b (ratio of P-gp inhibitory potency (IC50), 14a versus 14b) | IC50 [3] [µM] | SMILES |
| --- | --- | --- | --- | --- | --- | --- |
| -1.16 | 14.55 ± 0.05 | – | – | – | – | C[C@H](N[C@H]1c2cc(C#N)ccc2OC(C)(C)[C@@H]1O)C(=O)OC(C)(C)C [5b] |
| -0.38 | 2.4 ± 0.03 | – | – | – | – | CC(C)[C@H](N[C@@H]1c2cc(C#N)ccc2OC(C)(C)[C@H]1O)C(=O)OC(C)(C)C [6a] |
| -0.43 | 2.7 ± 0.02 | – | – | – | – | CC(C)[C@H](N[C@H]1c2cc(C#N)ccc2OC(C)(C)[C@@H]1O)C(=O)OC(C)(C)C [6b] |
| 0.26 | 0.55 ± 0.02 | – | – | – | – | CC(C)(C)OC(=O)[C@H](Cc1ccccc1)N[C@@H]1c2cc(C#N)ccc2OC(C)(C)[C@H]1O [7a] |
| 0.11 | 0.77 ± 0.04 | – | – | – | – | CC(C)(C)OC(=O)[C@H](Cc1ccccc1)N[C@H]1c2cc(C#N)ccc2OC(C)(C)[C@@H]1O [7b] |
| -0.60 | 3.96 ± 0.06 | – | – | – | – | C[C@@H](C(=O)OC(C)(C)C)N(C)[C@@H]1c2cc(C#N)ccc2OC(C)(C)[C@H]1O [8a] |
| -0.57 | 3.72 ± 0.03 | – | – | – | – | C[C@@H](C(=O)OC(C)(C)C)N(C)[C@H]1c2cc(C#N)ccc2OC(C)(C)[C@@H]1O [8b] |
| 0.02 | 0.96 ± 0.06 | 2 | – | – | – | CC(C)[C@@H](C(=O)OC(C)(C)C)N(C)[C@@H]1c2cc(C#N)ccc2OC(C)(C)[C@H]1O [9a] |
| -0.13 | 1.35 ± 0.003 | 2 | – | – | – | CC(C)[C@@H](C(=O)OC(C)(C)C)N(C)[C@H]1c2cc(C#N)ccc2OC(C)(C)[C@@H]1O [9b] |
| -0.66 | 4.62 ± 0.31 | – | – | – | – | CC(C)[C@@H](N[C@@H]1c2cc(C#N)ccc2OC(C)(C)[C@H]1O)C(=O)OC(C)(C)C [10a] |
| -0.13 | 1.34 ± 0.08 | – | – | – | – | CC(C)[C@@H](N[C@H]1c2cc(C#N)ccc2OC(C)(C)[C@@H]1O)C(=O)OC(C)(C)C [10b] |
| -0.004 | 1.01 ± 0.02 | – | – | – | – | CC(C)[C@H](C(=O)OC(C)(C)C)N(C)[C@@H]1c2cc(C#N)ccc2OC(C)(C)[C@H]1O [11a] |
| 0.005 | 1 ± 0.05 | – | – | – | – | CC(C)[C@H](C(=O)OC(C)(C)C)N(C)[C@H]1c2cc(C#N)ccc2OC(C)(C)[C@@H]1O [11b] |
| -0.42 | 2.68 ± 0.18 | – | – | two orders of magnitude more active | – | CC1(C)Oc2ccc(C#N)cc2[C@H]2N[C@@H](Cc3ccccc3)C(=O)O[C@@H]21 [14a] |
| – | 9.63 ± 0.08 | – | – | – | 9.55 | CC(C)[C@H]1N[C@H]2c3cc(C#N)ccc3OC(C)(C)[C@@H]2OC1=O [17b] |
